Results as given in paper PMC11808659 (RSC Advances, 2025).

Experiments:
[1] = system: K562 human leukemia cell line; test: MTT anti-proliferative activity on K562 cell line; format: cell-based; conditions: structure-activity discussion
ABL1 tyrosine kinase = ABL1 tyrosine kinase inhibition in K562 cells; format: cell-based, human; conditions: at a concentration of 30 μM

SMILES	anti-tumor activity against K562 cell line (in words) [1]	inhibition of ABL1 production (ABL1 tyrosine kinase)
COc1ccc(-c2cc(-c3cccc(OC)c3)nc(N)n2)cc1 [1i, 4-(4-Methoxy-phenyl)-6-(3-methoxy-phenyl)-pyrimidin-2-ylamine]	completely lost their anti-tumor activity	–
COc1cccc(-c2cc(-c3ccc(Cl)cc3)nc(N)n2)c1 [1k, 4-(4-Chloro-phenyl)-6-(3-methoxy-phenyl)-pyrimidin-2-ylamine]	significantly decreased the inhibitory activity	–
Nc1nc(-c2ccc(Br)cc2)cc(-c2ccccc2O)n1 [1e, 2-(2-Amino-6-(4-bromophenyl)pyrimidin-4-yl)phenol]	–	80%
COc1ccc(-c2cc(-c3ccc(Cl)cc3)nc(N)n2)cc1 [1p, 4-(4-Chlorophenyl)-6-(4-methoxyphenyl)pyrimidin-2-amine]	significantly decreased the inhibitory activity	–
Nc1nc(-c2ccc(Cl)cc2)cc(-c2ccccc2O)n1 [1f, 2-(2-Amino-6-(4-chlorophenyl)pyrimidin-4-yl)phenol]	significantly decreased the inhibitory activity	–
COc1ccc(-c2cc(-c3ccc(OC)cc3)nc(N)n2)cc1 [1n, 4,6-Bis(4-methoxyphenyl)pyrimidin-2-amine]	completely lost their anti-tumor activity	–
COc1ccc(-c2cc(-c3ccccc3O)nc(N)n2)cc1 [1d, 2-(2-Amino-6-(4-methoxyphenyl)pyrimidin-4-yl)phenol]	completely lost their anti-tumor activity	–
